Reference: patent publication US12655106B2 (Eikonizo Therapeutics, Inc., priority 2021, dated 2026)
pIC50: −log10 of the molar value.

Experiments:
[1] = target: T1, Full length Human HDAC6 (Homo sapiens, UniProt Q9UBN7); test: Caliper endpoint assay for HDAC enzymatic activity (HDAC6); assay type: biochemical; details: for pIC50: in vitro enzymatic, Caliper endpoint assay, 30 min pre-incubation, 1 μM substrate peptide; for Selectivity (6 v 8): ratio of HDAC8 IC50/HDAC6 IC50
T1 construct: Full length Human HDAC6; FLAG (C); host or cells: baculovirus expression system
T1 sequence (Q9UBN7 1-1215): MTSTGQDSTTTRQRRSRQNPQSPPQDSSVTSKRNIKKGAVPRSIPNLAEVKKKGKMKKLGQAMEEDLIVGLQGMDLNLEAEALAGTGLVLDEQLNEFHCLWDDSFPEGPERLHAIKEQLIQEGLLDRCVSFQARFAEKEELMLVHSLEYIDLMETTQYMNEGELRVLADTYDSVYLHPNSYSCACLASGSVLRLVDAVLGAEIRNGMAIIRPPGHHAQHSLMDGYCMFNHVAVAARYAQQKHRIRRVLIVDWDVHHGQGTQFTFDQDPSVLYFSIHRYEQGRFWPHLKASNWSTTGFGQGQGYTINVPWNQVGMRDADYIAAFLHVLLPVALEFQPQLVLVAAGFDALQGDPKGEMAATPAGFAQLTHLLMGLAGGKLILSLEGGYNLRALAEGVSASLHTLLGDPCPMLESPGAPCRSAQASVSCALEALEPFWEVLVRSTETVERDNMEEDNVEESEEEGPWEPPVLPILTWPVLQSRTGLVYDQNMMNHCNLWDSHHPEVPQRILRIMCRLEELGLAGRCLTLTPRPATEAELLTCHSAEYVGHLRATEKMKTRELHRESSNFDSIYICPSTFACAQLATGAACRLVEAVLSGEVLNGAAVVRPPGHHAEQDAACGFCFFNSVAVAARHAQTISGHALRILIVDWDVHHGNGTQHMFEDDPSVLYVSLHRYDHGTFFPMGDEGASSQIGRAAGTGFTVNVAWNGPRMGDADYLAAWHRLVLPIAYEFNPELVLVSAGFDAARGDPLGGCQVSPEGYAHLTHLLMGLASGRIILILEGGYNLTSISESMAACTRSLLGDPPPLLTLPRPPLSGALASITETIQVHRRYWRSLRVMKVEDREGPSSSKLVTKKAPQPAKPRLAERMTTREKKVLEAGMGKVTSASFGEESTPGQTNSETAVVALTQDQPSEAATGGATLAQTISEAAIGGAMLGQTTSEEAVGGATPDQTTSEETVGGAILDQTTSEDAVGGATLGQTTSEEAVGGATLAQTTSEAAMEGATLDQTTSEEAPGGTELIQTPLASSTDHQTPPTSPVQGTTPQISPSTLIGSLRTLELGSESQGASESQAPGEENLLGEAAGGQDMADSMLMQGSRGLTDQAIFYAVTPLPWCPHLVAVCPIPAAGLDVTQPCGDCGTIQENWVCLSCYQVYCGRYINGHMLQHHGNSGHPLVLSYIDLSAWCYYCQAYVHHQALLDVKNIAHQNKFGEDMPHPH

[2] = target: T2, Full length Human HDAC8 (Homo sapiens, UniProt Q9BY41); test: Caliper endpoint assay for HDAC enzymatic activity (HDAC8); assay type: biochemical; details: in vitro enzymatic, 30 min pre-incubation, 1 μM substrate peptide
T2 construct: Full length Human HDAC8; HIS (N); host or cells: baculovirus expression system
T2 sequence (Q9BY41 1-377): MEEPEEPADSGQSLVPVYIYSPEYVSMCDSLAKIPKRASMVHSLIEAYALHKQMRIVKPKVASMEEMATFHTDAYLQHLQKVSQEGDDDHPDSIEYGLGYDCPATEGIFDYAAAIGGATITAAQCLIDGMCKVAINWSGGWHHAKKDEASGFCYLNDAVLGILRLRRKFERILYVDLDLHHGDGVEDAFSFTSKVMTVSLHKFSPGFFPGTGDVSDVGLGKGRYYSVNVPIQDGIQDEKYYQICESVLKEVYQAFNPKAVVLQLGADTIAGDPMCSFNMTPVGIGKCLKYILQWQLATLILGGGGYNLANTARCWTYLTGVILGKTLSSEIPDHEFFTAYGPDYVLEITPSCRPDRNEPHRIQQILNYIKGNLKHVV

Row | SMILES | pIC50 [1] | Selectivity (6 v 8) [1] | pIC50 [2]
1 | CN1CCC[C@@]2(CC[C@H]2N2CCc3cc(C(=O)NO)cc(F)c3C2)C1 (single isomer, unassigned) [Compound 362] | 6.00 to 7.00 | III (III: >10-100) | 4.00 to 5.00
2 | CN1CC[C@]2(CC[C@@H](N3CCc4cc(C(=O)NO)cc(F)c4C3)C2)C1 (single isomer, unassigned) [Compound 402] | 7.00 to 9.00 | IV (IV: >100-1000) | 5.00 to 6.00
3 | CN1CC[C@]2(CC[C@H](N3CCc4cc(C(=O)NO)cc(F)c4C3)C2)C1 (single isomer, unassigned) [Compound 403] | 7.00 to 9.00 | V (V: >1000) | 4.00 to 5.00
4 | CN1CC[C@@]2(CC[C@@H](N3CCc4cc(C(=O)NO)cc(F)c4C3)C2)C1 (single isomer, unassigned) [Compound 404] | 7.00 to 9.00 | IV (IV: >100-1000) | 4.00 to 5.00
5 | CN1CC[C@@]2(CC[C@H](N3CCc4cc(C(=O)NO)cc(F)c4C3)C2)C1 (single isomer, unassigned) [Compound 405] | 7.00 to 9.00 | V (V: >1000) | < 4.00
6 | O=C(NO)c1cc(F)c2c(c1)CCN([C@H]1CCNC3(CCC3)C1)C2 (single isomer, unassigned) [Compound 435] | 7.00 to 9.00 | IV (IV: >100-1000) | 5.00 to 6.00
7 | O=C(NO)c1cc(F)c2c(c1)CCN([C@@H]1CCNC3(CCC3)C1)C2 (single isomer, unassigned) [Compound 436] | 7.00 to 9.00 | IV (IV: >100-1000) | 5.00 to 6.00
8 | CN1CC[C@H](N2CCc3cc(C(=O)NO)cc(F)c3C2)CC12CCC2 (single isomer, unassigned) [Compound 437] | 7.00 to 9.00 | IV (IV: >100-1000) | 4.00 to 5.00
9 | CN1CC[C@@H](N2CCc3cc(C(=O)NO)cc(F)c3C2)CC12CCC2 (single isomer, unassigned) [Compound 438] | 7.00 to 9.00 | IV (IV: >100-1000) | 5.00 to 6.00
10 | O=C(NO)c1cc(F)c2c(c1)CCN([C@H]1CCN(C3CC3)C3(CCC3)C1)C2 (single isomer, unassigned) [Compound 439] | 7.00 to 9.00 | IV (IV: >100-1000) | 4.00 to 5.00
11 | O=C(NO)c1cc(F)c2c(c1)CCN([C@@H]1CCN(C3CC3)C3(CCC3)C1)C2 (single isomer, unassigned) [Compound 440] | 7.00 to 9.00 | IV (IV: >100-1000) | 5.00 to 6.00
12 | CC(=O)N1CC[C@H](N2CCc3cc(C(=O)NO)cc(F)c3C2)CC12CCC2 (single isomer, unassigned) [Compound 441] | 7.00 to 9.00 | IV (IV: >100-1000) | 5.00 to 6.00

The next lines start with the values.

Row | pIC50 [1] | Selectivity (6 v 8) [1] | pIC50 [2] | SMILES
13 | 7.00 to 9.00 | IV (IV: >100-1000) | 4.00 to 5.00 | O=C(NO)c1cc(F)c2c(c1)CCN([C@H]1C[C@]3(CCCNC3)C1)C2 (single isomer, unassigned) [Compound 341, 8-fluoro-N-hydroxy-2-((2r,4s)-6-azaspiro[3.5]nonan-2-yl)-1,2,3,4-tetrahydroisoquinoline-6-carboxamide]
14 | 7.00 to 9.00 | IV (IV: >100-1000) | 5.00 to 6.00 | O=C(NO)c1cc(F)c2c(c1)CCN([C@H]1C[C@@]3(CCCNC3)C1)C2 (single isomer, unassigned) [Compound 342, 8-fluoro-N-hydroxy-2-((2s,4r)-6-azaspiro[3.5]nonan-2-yl)-1,2,3,4-tetrahydroisoquinoline-6-carboxamide]
15 | 7.00 to 9.00 | IV (IV: >100-1000) | 4.00 to 5.00 | CN1CCC[C@]2(C1)C[C@@H](N1CCc3cc(C(=O)NO)cc(F)c3C1)C2 (single isomer, unassigned) [Compound 343, 8-fluoro-N-hydroxy-2-((2r,4s)-6-methyl-6-azaspiro[3.5]nonan-2-yl)-1,2,3,4-tetrahydroisoquinoline-6-carboxamide]
16 | 7.00 to 9.00 | IV (IV: >100-1000) | 4.00 to 5.00 | CN1CCC[C@]2(C1)C[C@H](N1CCc3cc(C(=O)NO)cc(F)c3C1)C2 (single isomer, unassigned) [Compound 344, 8-fluoro-N-hydroxy-2-((2s,4r)-6-methyl-6-azaspiro[3.5]nonan-2-yl)-1,2,3,4-tetrahydroisoquinoline-6-carboxamide]
17 | 7.00 to 9.00 | IV (IV: >100-1000) | 5.00 to 6.00 | O=C(NO)c1cc(F)c2c(c1)CCN([C@H]1C[C@]3(CCCN(C4CC4)C3)C1)C2 (single isomer, unassigned) [Compound 345, 2-((2r,4s)-6-cyclopropyl-6-azaspiro[3.5]nonan-2-yl)-8-fluoro-N-hydroxy-1,2,3,4-tetrahydroisoquinoline-6-carboxamide]
18 | 7.00 to 9.00 | IV (IV: >100-1000) | 5.00 to 6.00 | O=C(NO)c1cc(F)c2c(c1)CCN([C@H]1C[C@@]3(CCCN(C4CC4)C3)C1)C2 (single isomer, unassigned) [Compound 346, 2-((2s,4r)-6-cyclopropyl-6-azaspiro[3.5]nonan-2-yl)-8-fluoro-N-hydroxy-1,2,3,4-tetrahydroisoquinoline-6-carboxamide]
19 | 7.00 to 9.00 | IV (IV: >100-1000) | 4.00 to 5.00 | CC(=O)N1CCC[C@]2(C1)C[C@H](N1CCc3cc(C(=O)NO)cc(F)c3C1)C2 (single isomer, unassigned) [Compound 348, 2-(6-acetyl-6-azaspiro[3.5]nonan-2-yl)-8-fluoro-3,4-dihydro-1H-isoquinoline-6-carbohydroxamic acid]
20 | 7.00 to 9.00 | IV (IV: >100-1000) | 4.00 to 5.00 | CC(=O)N1CCC[C@]2(C1)C[C@@H](N1CCc3cc(C(=O)NO)cc(F)c3C1)C2 (single isomer, unassigned) [Compound 349, 2-(6-acetyl-6-azaspiro[3.5]nonan-2-yl)-8-fluoro-3,4-dihydro-1H-isoquinoline-6-carbohydroxamic acid]
21 | 7.00 to 9.00 | IV (IV: >100-1000) | 4.00 to 5.00 | CN1CCC[C@]2(CC[C@H]2N2CCc3cc(C(=O)NO)cc(F)c3C2)C1 (single isomer, unassigned) [Compound 363]
22 | 7.00 to 9.00 | IV (IV: >100-1000) | 4.00 to 5.00 | CN1CCC[C@@]2(CC[C@@H]2N2CCc3cc(C(=O)NO)cc(F)c3C2)C1 (single isomer, unassigned) [Compound 364]
23 | 7.00 to 9.00 | IV (IV: >100-1000) | 4.00 to 5.00 | CN1CCC[C@]2(CC[C@@H]2N2CCc3cc(C(=O)NO)cc(F)c3C2)C1 (single isomer, unassigned) [Compound 365]
24 | 7.00 to 9.00 | V (V: >1000) | 4.00 to 5.00 | O=C(NO)c1cc(F)c2c(c1)CCN([C@H]1CCC3(CCC3)C1)C2 (single isomer, unassigned) [Compound 383]
25 | 7.00 to 9.00 | V (V: >1000) | 4.00 to 5.00 | O=C(NO)c1cc(F)c2c(c1)CCN([C@@H]1CCC3(CCC3)C1)C2 (single isomer, unassigned) [Compound 384]
